Results: patent publication US20160374944A1, “COMPOSITIONS AND METHODS FOR TREATING AND PREVENTING CANCER BY TARGETING AND INHIBITING CANCER STEM CELLS” (priority 2011, published 2016)

Experiments:
Assay type in all cases: cell-based, human
[1] = test system: Gli1 and Gli2 in pancreatic CSCs; assay: nuclear translocation of Gli1 and Gli2 (immunostaining); details: EGCG 40 or 60 μM, 24 h
Description: Pancreatic CSCs were treated with or without EGCG (40 or 60 μM) for 24 h. At the end of incubation period, CSCs were fixed with paraformaldehyde, permeabilized with titron X100, and blocked with 5% normal goat serum. Cells were then treated with either anti-Gli1 or anti-Gli2 antibody, followed by secondary antibody plus DAPI. Stained cells were mounted and visualized under a fluorescence microscope. Blue fluorescence of DAPI was changed to red color for a better contrast.

Prostate CSCs = assay: spheroid formation and cell viability in spheroids (trypan blue); details: 7 and 14 days, embelin 0-6 μM, rottlerin 0-2 μM
Description: In particular, embelin is shown to inhibit spheroid and colony formation, and induce caspase-3 and apoptosis. (A) Prostate CSCs were grown in CSC medium and treated with embelin (0-6 μM) for 7 days to obtain primary spheroids. At the end of incubation period, spheroids were collected, reseeded and treated with embelin for another week to obtain secondary spheroids. Cell viability in spheroids was measured by trypan blue assay at the end of 7 and 14 days. […] (B) Prostate CSCs were seeded in soft agar and treated with embelin (0-6 μM) for 21 days. […] (C and D) Activation of caspase-3 and induction of apoptosis is shown.
(A) Prostate CSCs were grown in CSC medium and treated with rottlerin (0-2 μM) for 7 days to obtain primary spheroids. At the end of incubation period, spheroids were collected, reseeded and treated with rottlerin for another week to obtain secondary spheroids. Cell viability in spheroids was measured by trypan blue assay at the end of 7 and 14 days. […] (B) Prostate CSCs were seeded in soft agar and treated with rottlerin (0-2 μM) for 21 days. […] (C and D) Activation of caspase-3 and induction of apoptosis.
The effects of embelin on growth of prostate CSCs was studied by measuring cell viability and colony formation, as shown in FIGS. 9A and 9B. […]

[2] = test system: Gli reporter activity in prostate CSCs; assay: Gli-responsive dual luciferase reporter; details: rottlerin 0-2 μM, 24 h, dual luciferase assay
Description: (§1) FIG. 17 graphs showing the regulation of Shh, Notch and TGFβ pathways by rottlerin. […] The expression of Patched-1, Patched-2, SMO, Gli1 and Gli2 was measured by qRT-PCR. […] Data were normalized with GAPDH. (D) Prostate CSCs were treated with rottlerin (0-1 μM) for 24 h. The expression of Notch1, Notch3 and JAG1 was measured by qRT-PCR. (E) TCF/LEF-1, Gli and Notch reporter activities. Prostate CSCs were transduced with a mixture of TCF/LEF1-, Gli-, or Notch-responsive firefly luciferase construct and Renilla luciferase construct (40:1) along with lipofectamine. After transduction, medium was changed and CSCs were treated with rottlerin (0-2 μM) for 24 h. […] (F) Immunofluorescence analysis of Gli1 and Gli2 expression in prostate CSCs. Green=Gli1 or Gli2; red=nucleus.

[3] = test system: TCF/LEF-1 reporter activity in prostate CSCs; assay: TCF/LEF1-responsive dual luciferase reporter; details: rottlerin 0-2 μM, 24 h, dual luciferase assay
Description: as §1

Structure (SMILES) | nuclear expression of Gli1 protein [1] | nuclear expression of Gli2 protein [1] | size of primary and secondary spheroids in suspension (Prostate CSCs; data not shown) | cell viability in spheroids (Prostate CSCs; primary and secondary spheroids, trypan blue) | Gli responsive reporter activity [2] | TCF/LEF1 responsive reporter activity [3]
O=C(O[C@@H]1Cc2c(O)cc(O)cc2O[C@@H]1c1cc(O)c(O)c(O)c1)c1cc(O)c(O)c(O)c1 [EGCG, epigallocatechin gallate] | inhibited the nuclear expression | inhibited the nuclear expression |  |  |  | 
CC(=O)c1c(O)c(C)c(O)c(Cc2c(O)c3c(c(C(=O)/C=C/c4ccccc4)c2O)OC(C)(C)C=C3)c1O [rottlerin] |  |  | inhibited the size | inhibited | inhibited the TCF/LEF1, Gli1 and Notch responsive reporter activities in a dose-dependent manner | inhibited the TCF/LEF1, Gli1 and Notch responsive reporter activities in a dose-dependent manner
